Measured values published in US11214803B2, “Modulators of YAP1 expression” (Ionis Pharmaceuticals, Inc., priority 2019, dated 2022).
Marks after values point to notes of the source that are not given here. Strand notation (5' to 3'): a small letter for the sugar, then the base; units joined by * are phosphorothioate-linked, units joined directly phosphodiester-linked; [ ] holds rarer units or linkages, { } end groups; capitals alone tell only the bases. k = constrained ethyl (cEt); [5mC] = 5-methylcytosine; d = 2'-deoxy (DNA)

test system: Yap1 mRNA; assay: Antisense inhibition of human Yap1 in A-431 cells by cEt gapmers, single dose (Example 3, RTS36584); assay type: cell-based; settings: Table 8; A-431 cells, 5,000 cells per well, free uptake, 2,000 nM, approximately 48 hours; RTS36584; normalized to RIBOGREEN; Yap1 mRNA relative to untreated control cells
Experimental: Modified oligonucleotides were designed to target a Yap1 nucleic acid and were tested for their effect on Yap1 mRNA level in vitro. The modified oligonucleotides were tested in a series of experiments that had similar culture conditions. Cultured A-431 cells at a density of 5,000 cells per well were treated using free uptake with 2,000 nM of modified oligonucleotide. After a treatment period of approximately 48 hours, RNA was isolated from the cells and Yap1 mRNA levels were measured by quantitative real-time RTPCR. Human primer probe set RTS36584 (forward sequence […], designated herein as SEQ ID NO.: 14; reverse sequence […], designated herein as SEQ ID NO.: 15; probe sequence […], designated herein as SEQ ID NO.: 16) was used to measure mRNA levels. Yap1 mRNA levels were normalized to total RNA content, as measured by RIBOGREEN®. Results are presented in the tables below as percent control of the amount of Yap1 mRNA relative to untreated control cells (% UTC). The modified oligonucleotides with percent control values marked with an asterisk (*) target the amplicon region of the primer probe set. Additional assays may be used to measure the potency and efficacy of the modified oligonucleotides targeting the amplicon region.
The newly designed modified oligonucleotides in the Tables below were designed as 3-10-3 cEt gapmers. The gapmers are 16 nucleosides in length, wherein the central gap segment comprises of ten 2′-deoxynucleosides and is flanked by wing segments on the 5′ direction and the 3′ direction comprising three nucleosides each. Each nucleoside in the 5′ wing segment and each nucleoside in the 3′ wing segment has a cEt sugar modification. The internucleoside linkages throughout each gapmer are phosphorothioate (P═S) linkages. All cytosine residues throughout each gapmer are 5-methylcytosines.
“Start site” indicates the 5′-most nucleoside to which the gapmer is targeted in the human gene sequence. “Stop site” indicates the 3′-most nucleoside to which the gapmer is targeted human gene sequence. […] Activity of the modified oligonucleotide may be defined in a different experiment.

Row | Substance | YAP1 (% UTC)
1 | 958360 (antisense kT*k[5mC]*kG*dA*dA*d[5mC]*dA*dT*dG*d[5mC]*dT*dG*dT*kG*kG*kA) [Compound 958360] | 12
2 | 958386 (antisense kG*kG*k[5mC]*dG*d[5mC]*dG*d[5mC]*dG*d[5mC]*dA*dT*dT*dG*kT*kG*k[5mC]) [Compound 958386] | 111
3 | 958390 (antisense kG*k[5mC]*kG*dA*dA*dG*dG*dT*dG*d[5mC]*dG*dG*dA*kG*k[5mC]*kG) [Compound 958390] | 145
4 | 958389 (antisense k[5mC]*kG*kG*dA*dG*dG*d[5mC]*dG*d[5mC]*dG*d[5mC]*dG*d[5mC]*kA*kT*kT) [Compound 958389] | 126

same assay, conditions: Table 9; A-431 cells, 5,000 cells per well, free uptake, 2,000 nM, approximately 48 hours; RTS36584; normalized to RIBOGREEN; Yap1 mRNA relative to untreated control cells

Row | Substance | YAP1 (% UTC)
5 | 958456 (antisense kG*kG*k[5mC]*d[5mC]*dA*dG*dA*dG*dA*d[5mC]*dT*dA*d[5mC]*kT*k[5mC]*k[5mC]) [Compound 958456] | 90
6 | 958461 (antisense kG*k[5mC]*k[5mC]*dG*dA*dA*dG*d[5mC]*dA*dG*dT*dT*d[5mC]*kT*kT*kG) [Compound 958461] | 79
7 | 958801 (antisense k[5mC]*kG*k[5mC]*dT*dA*dG*d[5mC]*dA*d[5mC]*dG*d[5mC]*dG*d[5mC]*kG*k[5mC]*kT) [Compound 958801] | 131
8 | 958476 (antisense kT*kT*k[5mC]*d[5mC]*dG*dG*dT*dG*d[5mC]*dA*dT*dG*dT*kG*kT*k[5mC]) [Compound 958476] | 2
9 | 958771 (antisense k[5mC]*kT*kA*d[5mC]*dA*dG*dA*d[5mC]*dG*dA*dA*dT*dT*k[5mC]*k[5mC]*kA) [Compound 958771] | 18

same assay, conditions: Table 10; A-431 cells, 5,000 cells per well, free uptake, 2,000 nM oligonucleotide, approx. 48 hours; primer probe set RTS36584; Yap1 mRNA normalized to RIBOGREEN, percent of untreated control

Row | Substance | YAP1 (% UTC)
10 | 958647 (kT*kA*kG*dG*dA*dA*dG*dT*dT*dG*dT*dT*dG*kA*k[5mC]*k[5mC]; antisense) [Compound 958647] | 11
11 | 958577 (kT*k[5mC]*kT*dG*dT*dG*dG*d[5mC]*dT*dA*d[5mC]*dT*dG*kG*k[5mC]*kA; antisense) [Compound 958577] | 4
12 | 958447 (antisense kG*kT*kT*dG*dA*dG*dG*d[5mC]*dG*dG*d[5mC]*dG*dG*k[5mC]*kT*kG) [Compound 958447] | 48
13 | 958562 (k[5mC]*kA*kT*dT*dG*dA*dA*dA*dG*dA*d[5mC]*d[5mC]*d[5mC]*kT*kT*kA; antisense) [Compound 958562] | 6
14 | 958697 (antisense k[5mC]*kT*kA*dA*dA*dG*dA*dT*dG*dA*d[5mC]*dT*dA*k[5mC]*kT*kG) [Compound 958697] | 39

same assay, conditions: Table 11; A-431 cells, 5,000 cells per well, free uptake, 2,000 nM oligonucleotide, approx. 48 hours; primer probe set RTS36584; Yap1 mRNA normalized to RIBOGREEN, percent of untreated control

Row | Substance | YAP1 (% UTC)
15 | 958738 (antisense kT*k[5mC]*kT*dA*dT*dA*dT*dG*dT*dT*dT*d[5mC]*d[5mC]*k[5mC]*k[5mC]*k[5mC]) [Compound 958738] | 11
16 | 958583 (kA*kG*k[5mC]*dT*dA*dA*dT*d[5mC]*dT*dG*d[5mC]*dT*dG*kA*kT*kA; antisense) [Compound 958583] | 89
17 | 958648 (kG*kA*kA*dT*dA*d[5mC]*dT*dG*dA*dG*dT*d[5mC]*dA*kG*kG*kA; antisense) [Compound 958648] | 7
18 | 958443 (antisense k[5mC]*kT*k[5mC]*d[5mC]*dA*d[5mC]*dG*dG*dG*d[5mC]*d[5mC]*dG*dA*kG*kG*kT) [Compound 958443] | 90

same assay, conditions: Table 12; A-431 cells, 5,000 cells per well, free uptake, 2,000 nM modified oligonucleotide, approx. 48 hours; RTS36584; normalized to RIBOGREEN; Yap1 mRNA relative to untreated control cells

Row | Substance | YAP1 (% UTC)
19 | 958599 (kT*kT*k[5mC]*dA*dA*dG*dA*dA*dT*dA*d[5mC]*d[5mC]*d[5mC]*kA*kG*kT; antisense) [Compound 958599] | 5 % UTC
20 | 958464 (antisense kG*k[5mC]*kT*d[5mC]*dA*dT*dG*d[5mC]*dT*dT*dA*dG*dT*k[5mC]*k[5mC]*kA) [Compound 958464] | 3* % UTC

same assay, conditions: Table 13; A-431 cells, 5,000 cells per well, free uptake, 2,000 nM modified oligonucleotide, approx. 48 hours; RTS36584; normalized to RIBOGREEN; Yap1 mRNA relative to untreated control cells

Row | Substance | YAP1 (% UTC)
21 | 958805 (k[5mC]*kA*kA*dG*dA*dT*dA*dA*dT*d[5mC]*dA*dT*d[5mC]*k[5mC]*kT*k[5mC]; antisense) [Compound 958805] | 6
22 | 958575 (kG*kG*k[5mC]*dT*dA*d[5mC]*dT*dG*dG*d[5mC]*dA*dA*dA*kT*kT*kA; antisense) [Compound 958575] | 9
23 | 958775 (antisense kG*kT*k[5mC]*dT*dA*dT*dA*d[5mC]*dG*dG*dG*dA*dG*kA*kT*kT) [Compound 958775] | 29

same assay, conditions: Table 26; Yap1 mRNA by 3-10-3 cEt gapmers targeting SEQ ID NO.: 1, and 2; percent of untreated control

Row | Substance | YAP1 (% UTC)
24 | 1074604 (DNA kT*kT*kA*dT*dT*dA*dA*dT*d[5mC]*dT*dG*dA*dT*k[5mC]*kA*k[5mC]) [compound 1074604] | 12
25 | 1074284 (antisense k[5mC]*kA*kA*dA*dA*d[5mC]*dG*dA*dG*dG*dG*dT*d[5mC]*kA*kA*kG) [compound 1074284] | 21
26 | 1074412 (k[5mC]*kT*kG*dT*dG*dA*dA*dA*dG*dA*dG*dG*dT*k[5mC]*kA*kG; antisense) [compound 1074412] | 55
27 | 1074700 (antisense kG*kT*kA*dA*dG*dA*d[5mC]*dA*dA*dG*dT*d[5mC]*dT*kT*kT*kA) [compound 1074700] | 26
28 | 1074156 (kA*kG*kG*dG*d[5mC]*dT*dA*d[5mC]*dG*d[5mC]*d[5mC]*d[5mC]*dG*kG*kA*k[5mC]; antisense) [compound 1074156] | 96

same assay, conditions: Table 27; Yap1 mRNA by 3-10-3 cEt gapmers targeting SEQ ID NO.: 1, and 2; percent of untreated control

Row | Substance | YAP1 (% UTC)
29 | 1075213 (kA*k[5mC]*kA*dA*dT*dA*dA*dA*dG*dG*dG*dT*d[5mC]*k[5mC]*kT*kA; antisense) [compound 1075213] | 33
30 | 1076173 (k[5mC]*kA*kA*dT*dA*dT*dA*dT*d[5mC]*d[5mC]*dT*dG*dA*kG*kA*kT; antisense) [compound 1076173] | 91

same assay, conditions: Table 28; Yap1 mRNA as percent of untreated control; 3-10-3 cEt gapmers targeting SEQ ID NO.: 1, and 2

Row | Substance | YAP1 (% UTC)
31 | 1074286 (antisense kT*kG*kA*dT*dT*d[5mC]*dT*d[5mC]*dT*dG*dG*dT*dT*k[5mC]*kA*kT) [compound 1074286] | 32

same assay, conditions: Table 29; Yap1 mRNA as percent of untreated control; 3-10-3 cEt gapmers targeting SEQ ID NO.: 1, and 2

Row | Substance | YAP1 (% UTC)
32 | 1075535 (kA*kA*kT*dT*dA*d[5mC]*d[5mC]*d[5mC]*dA*dA*dG*dG*dA*k[5mC]*kA*kG; antisense) [compound 1075535] | 53
33 | 1074191 (antisense kA*k[5mC]*kG*dG*d[5mC]*dG*dG*dG*d[5mC]*d[5mC]*d[5mC]*dT*dG*k[5mC]*k[5mC]*k[5mC]) [compound 1074191] | 80
34 | 1074575 (DNA kA*k[5mC]*kA*dT*dT*dA*dT*dG*dA*dA*d[5mC]*d[5mC]*dT*kA*k[5mC]*kT) [compound 1074575] | 14

same assay, conditions: Table 34; Yap1 mRNA as percent of untreated control; 3-10-3 cEt gapmers targeting SEQ ID NO: 1 and 2; single dose

Row | Substance | YAP1 (% UTC)
35 | 1075284 (antisense k[5mC]*kT*kT*dT*dT*d[5mC]*dG*dA*dA*dT*dA*dT*dA*kG*kA*kA) [compound 1075284] | 76
36 | 1074804 (kT*kA*kG*d[5mC]*dA*dA*dA*dG*dT*d[5mC]*dA*d[5mC]*dT*kT*k[5mC]*k[5mC]; antisense) [compound 1074804] | 15
37 | 1074196 (antisense kG*k[5mC]*k[5mC]*d[5mC]*dG*dG*dG*dT*d[5mC]*d[5mC]*dG*dG*dA*k[5mC]*kG*kG) [compound 1074196] | 99
38 | 1074356 (antisense kG*kA*kG*dG*dG*dA*d[5mC]*dA*d[5mC]*dT*dG*dT*dA*kG*k[5mC]*kT) [compound 1074356] | 43

same assay, conditions: Table 35; Yap1 mRNA as percent of untreated control; 3-10-3 cEt gapmers targeting SEQ ID NO: 1 and 2; single dose

Row | Substance | YAP1 (% UTC)
39 | 1075381 (antisense kT*kA*kT*dT*dA*d[5mC]*d[5mC]*d[5mC]*dT*dA*d[5mC]*dT*d[5mC]*kA*kT*kA) [compound 1075381] | 89
40 | 1076181 (kT*kA*kT*dA*dA*dT*dT*dA*dG*d[5mC]*d[5mC]*dA*dA*k[5mC]*k[5mC]*kA; antisense) [compound 1076181] | 26
